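All cell lines were grown in 96-well plates and treated with compound for 48 hours. At the GI50, growth is halved. Definition used: TGI = concentration required for complete inhibition of growth.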
Assays:
Test in all cases: DTP human tumour cell line panel, 48 h
A549 NSCLC = test system: A549 NSCLC
UO-31 renal = test system: UO-31 renal
OVCAR-4 ovarian = test system: OVCAR-4 ovarian
NCI-H226 lung = test system: NCI-H226 lung
SR leukemia = test system: SR leukemia
RPMI-8226 leukemia = test system: RPMI-8226 leukemia
MDA-MB-231 breast = test system: MDA-MB-231 breast

SMILES | GI50 (A549 NSCLC) [µM] | TGI (A549 NSCLC) [µM] | GI50 (UO-31 renal) [µM] | TGI (UO-31 renal) [µM] | GI50 (OVCAR-4 ovarian) [µM] | TGI (OVCAR-4 ovarian) [µM] | GI50 (NCI-H226 lung) [µM] | TGI (NCI-H226 lung) [µM] | GI50 (SR leukemia) [µM] | TGI (SR leukemia) [µM] | GI50 (RPMI-8226 leukemia) [µM] | TGI (RPMI-8226 leukemia) [µM] | GI50 (MDA-MB-231 breast) [µM] | TGI (MDA-MB-231 breast) [µM]
CN1C(=O)C(C)(C)Oc2c(-c3cn(C)c(=O)c4[nH]ccc34)cc(S(C)(=O)=O)cc21 | 0.989 | > 100 | 0.431 | > 100 | 0.741 | 33.6 | 2.26 | > 100 | 0.469 | > 100 | 0.243 | 4.94 | 0.664 | > 100
N#CC(CC(=O)O)=C(c1ccccc1)c1ccccc1 | – | > 100 | – | > 100 | – | > 100 | – | > 100 | – | > 100 | – | > 100 | – | > 100
CC(C)CC1NC(=O)C(C(C)C)NC(=O)CC(C)COC(=O)C(CC(C)C)N(C)C(=O)C(C(C)C)NC(=O)C(C(C)C)OC1=O (configuration not stated) | – | > 50 | – | > 50 | – | – | – | > 50 | – | > 50 | – | – | – | > 50
C[C@H](c1ccc(Cl)cc1[N+](=O)[O-])N1C(=O)c2cc(I)ccc2NC(=O)[C@H]1c1ccc(Cl)cc1 | 6.01 | > 100 | 2.54 | > 100 | 7.08 | > 100 | > 100 | > 100 | 28 | > 100 | > 100 | > 100 | 3.46 | > 100
CCC(=O)Oc1ccc(/C=N/NC(N)=S)nc1 | 35.4 | > 100 | 3.48 | 22.8 | 3.92 | > 100 | 9.72 | 43.4 | 1.34 | > 100 | 28.5 | > 100 | 6.79 | > 100
CCCC(CCC)C(=O)O | > 100 | > 20000 | > 100 | > 20000 | > 100 | > 20000 | > 20000 | > 20000 | > 100 | > 20000 | > 100 | > 20000 | > 100 | > 20000
COc1cc2c3c(n(CCCN4CCN(CCO)CC4)c(=O)c2cc1OC)-c1cc2c(cc1C3=O)OCO2 | 4.23 | 20.7 | > 91.5 | > 100 | 15.9 | > 50.7 | 7.49 | 28.4 | – | 1.34 | 0.559 | 3.91 | 4.97 | 18.3
O=[N+]([O-])c1ccc2nc(=S)[nH]n2c1 | – | > 100 | – | > 100 | – | > 100 | – | > 100 | – | > 100 | – | > 100 | – | > 100
O=C1/C(=C/c2cccc(F)c2)CN(C(=O)C(Cl)Cl)C/C1=C\c1cccc(F)c1 | 0.655 | 2.14 | 0.176 | 0.387 | 0.351 | 1.38 | 0.259 | 0.685 | 0.0296 | 0.465 | 0.0318 | 0.169 | 0.248 | 0.671

— PubChem BioAssay (NCI)
